Experimental data from ChEMBL document CHEMBL1201862, “PubChem BioAssay data set” (2004).
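Results reflect a 48-hour exposure of cells in 96-well plates to compound at five concentrations. At the GI50, growth is halved.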 Active and inactive are the calls of the source. Cut-off read from the data, not from the text of the source: active = GI50 up to about 1.1 µM and inactive = higher.

What was measured:
Experiment in all cases: DTP human tumour cell line panel, 48 h
[1] = system: EKVX
[2] = system: SK-MEL-2
[3] = system: UO-31
[4] = system: RXF 393
[5] = system: OVCAR-5
[6] = system: A549
[7] = system: OVCAR-8
[8] = system: Malme-3M
[9] = system: HT-29
[10] = system: K562
[11] = system: HCT-15
[12] = system: CCRF-CEM
[13] = system: SK-MEL-5
[14] = system: LOX IMVI
[15] = system: 786-0
[16] = system: MOLT-4
[17] = system: SR

Structure (SMILES)	GI50 [1]	GI50 [2]	GI50 [3]	GI50 [4]	GI50 [5]	GI50 [6]	GI50 [7]	GI50 [8]	GI50 [9]	GI50 [10]	GI50 [11]	GI50 [12]	GI50 [13]	GI50 [14]	GI50 [15]	GI50 [16]	GI50 [17]
COCCOCOc1ccc(OCOCCOC)c2c1C(=O)c1ccccc1C2=O	38.3 µM (inactive)	> 74.1 µM (inactive)	28.7 µM (inactive)	29.4 µM (inactive)	> 100 µM (inactive)	46.6 µM (inactive)	45.4 µM (inactive)	41.5 µM (inactive)	37.2 µM (inactive)	24.7 µM (inactive)	30.3 µM	27 µM (inactive)	51.8 µM (inactive)	27.9 µM (inactive)	92.9 µM (inactive)	21.6 µM (inactive)	
COC(=O)CCC(=O)N1C/C(=C\c2ccccc2)C(=O)/C(=C/c2ccccc2)C1	3.94 µM (inactive)		2.04 µM (inactive)	2.06 µM (inactive)	2.7 µM (inactive)	3.64 µM (inactive)	3.1 µM (inactive)	2.34 µM (inactive)	1.72 µM (inactive)	1.43 µM (inactive)	0.432 µM	2.74 µM (inactive)	2.2 µM (inactive)	0.447 µM (active)	2.03 µM (inactive)	1.83 µM (inactive)	1.18 µM (inactive)
CS(=O)(=O)CC1=Nc2nnc(CCCCCCCc3nnc4n3C(=O)C(CS(C)(=O)=O)=N4)n2C1=O	> 100 µM (inactive)		> 100 µM (inactive)	> 100 µM (inactive)	> 100 µM (inactive)	> 100 µM (inactive)	> 100 µM (inactive)	> 100 µM (inactive)	> 100 µM (inactive)	> 100 µM (inactive)	> 100 µM	> 100 µM (inactive)	> 100 µM (inactive)	> 100 µM (inactive)	> 100 µM (inactive)	> 100 µM (inactive)	> 100 µM (inactive)
CC(=O)CN(Cc1cc(C)c2c(c1)c1ccccc1n2Cc1ccccc1)S(=O)(=O)c1ccc(C)cc1	> 100 µM (inactive)	> 100 µM (inactive)	57.7 µM (inactive)			> 100 µM (inactive)	> 100 µM (inactive)	> 100 µM (inactive)	> 100 µM (inactive)	> 100 µM (inactive)		> 100 µM (inactive)	> 100 µM (inactive)		> 100 µM (inactive)	> 100 µM (inactive)	> 100 µM (inactive)
COc1cc2c(cc1O)[C@H](C)C(c1ccc(OC)c(OC)c1)O2 (some centres not stated)	17.5 µM (inactive)	3.1 µM (inactive)	5.69 µM (inactive)	11.7 µM (inactive)	45.6 µM (inactive)	7.24 µM (inactive)	13.2 µM (inactive)	10.3 µM (inactive)	18 µM (inactive)	2.98 µM (inactive)	3.08 µM	6.21 µM (inactive)	6.01 µM (inactive)	4.13 µM (inactive)	11.3 µM (inactive)	6.41 µM (inactive)	
CN1C2(c3ccccc3)C(C(=O)c3ccccc3)=C(C(=O)c3ccccc3)C1(c1ccccc1)c1c(-c3ccccc3)sc(-c3ccccc3)c12	> 100 µM (inactive)		> 100 µM (inactive)	> 100 µM (inactive)	> 100 µM (inactive)	> 100 µM (inactive)	> 100 µM (inactive)	> 100 µM (inactive)	> 100 µM (inactive)	> 100 µM (inactive)	> 100 µM	> 100 µM (inactive)	> 100 µM (inactive)	> 100 µM (inactive)	> 100 µM (inactive)		> 100 µM (inactive)
CCCCCCCCCCCCCCC1OC(=O)c2ccccc21 (configuration not stated)	39.9 µM (inactive)		> 100 µM (inactive)	52 µM (inactive)	31.7 µM (inactive)	60.3 µM (inactive)	55.8 µM (inactive)	> 100 µM (inactive)	35.8 µM (inactive)	30.6 µM (inactive)		32.7 µM (inactive)		86.1 µM (inactive)	> 100 µM (inactive)	36.7 µM (inactive)	42.5 µM (inactive)
CC1=C(C)CC2(SC1)C(=O)c1ccccc1C2=O		> 100 µM (inactive)	66.1 µM (inactive)	> 100 µM (inactive)	> 100 µM (inactive)	> 100 µM (inactive)	> 100 µM (inactive)	> 100 µM (inactive)	> 100 µM (inactive)	> 100 µM (inactive)	> 100 µM	93.8 µM (inactive)	> 100 µM (inactive)	> 100 µM (inactive)	> 100 µM (inactive)	> 100 µM (inactive)	> 100 µM (inactive)
CCc1ccccc1NC(=O)C(=O)C1C(=O)N(c2ccccc2)N=C1N (configuration not stated)	> 100 µM (inactive)	> 100 µM (inactive)	> 100 µM (inactive)	> 100 µM (inactive)	> 100 µM (inactive)	> 100 µM (inactive)	> 100 µM (inactive)	> 100 µM (inactive)	> 100 µM (inactive)	> 100 µM (inactive)	> 100 µM		> 100 µM (inactive)	> 100 µM (inactive)	> 100 µM (inactive)	8.3 µM (inactive)	
COc1ccccc1CCc1cc(OC)c(OC)c(OC)c1	49.3 µM (inactive)		22.9 µM (inactive)	20.9 µM (inactive)	1.56 µM (inactive)	41.1 µM (inactive)	45.9 µM (inactive)	49.5 µM (inactive)	41.5 µM (inactive)	33 µM (inactive)	36.1 µM	31.8 µM (inactive)	19.5 µM (inactive)	40.3 µM (inactive)	74.3 µM (inactive)	23.9 µM (inactive)	
COc1ccc(-c2ccccc2)c2[nH]c3c(c12)CCNC3=O	> 100 µM (inactive)		> 100 µM (inactive)	45.6 µM (inactive)	> 100 µM (inactive)	> 100 µM (inactive)	> 100 µM (inactive)	> 100 µM (inactive)	> 100 µM (inactive)	> 100 µM (inactive)	> 100 µM	> 100 µM (inactive)	> 100 µM (inactive)	> 100 µM (inactive)	> 100 µM (inactive)	> 100 µM (inactive)	> 100 µM (inactive)
COc1cc2cccc(NC(=O)c3cc(OC)c(OC)c(OC)c3Br)c2cc1OC	21.1 µM (inactive)	19.8 µM (inactive)	5.9 µM (inactive)		10 µM (inactive)	14.1 µM (inactive)	12.9 µM (inactive)	18.5 µM (inactive)	21.8 µM (inactive)	12.5 µM (inactive)		4.56 µM (inactive)	3.24 µM (inactive)		29.2 µM (inactive)	2.79 µM (inactive)	
COc1ccc(NC(=O)CSc2nnc(-c3ccc(NC(C)=O)cc3)o2)cc1	23 µM (inactive)	19.1 µM (inactive)	17.7 µM (inactive)	14.5 µM (inactive)	14.4 µM (inactive)	20.9 µM (inactive)	20.7 µM (inactive)	20.6 µM (inactive)	11.1 µM (inactive)	21.4 µM (inactive)	11.2 µM	9.55 µM (inactive)	13.2 µM (inactive)	10.9 µM (inactive)	17.2 µM (inactive)	17.4 µM (inactive)	
